Experimental data from paper PMC6038798, “Dissecting how modular polyketide synthase ketoreductases interact with acyl carrier protein-attached substrates” (Chemical Communications (Cambridge, England), 2017).

What was measured:
[1] = molecular target: mKRb, B1-type ketoreductase (KR) domain from module 7 of MLSB of the mycolactone polyketide synthase (Mycobacterium ulcerans); experiment: ITC; ACP species injected into a solution of the KR domain in the presence of excess NADPH; three repeat experiments
[2] = molecular target: mKRb, B1-type ketoreductase (KR) domain from module 7 of MLSB of the mycolactone polyketide synthase (Mycobacterium ulcerans); experiment: ITC; ACP species titrated against the KR domain in the presence of excess NADP+ (oxidised cofactor); three repeat experiments
mKRb = molecular target: T1, mKRb (Mycobacterium ulcerans, UniProt Q6MZ72); experiment: isothermal titration calorimetry; assay type: binding
T1 construct: gene mlsB; excised B1-type ketoreductase domain of module 7 of MLSB; recombinant, purified
Source text: isothermal titration calorimetry on mKRb

mKRa = molecular target: T2, mKRa (Mycobacterium ulcerans, UniProt Q6MZA4); experiment: isothermal titration calorimetry; assay type: binding
T2 construct: gene mlsA1; excised A1-type ketoreductase domain of module 5 of MLSA1; recombinant, purified
Source text: isothermal titration calorimetry on mKRa

| Molecule | Kd [1] [µM] | Kd [2] [µM] | Kd (mKRb) [µM] | Kd (mKRa) [µM] | stoichiometry N [1] |
| --- | --- | --- | --- | --- | --- |
| apo mACPb, acyl carrier protein domain cognate to mKRb (module 7 of MLSB), apo form (domain or fragment) | 2.6 | 2.2 | – | – | – |
| Acetoacetyl-mACPb (1b) (domain or fragment) | – | 0.38 | – | – | – |
| CC(=O)NCCS [compound 7, N-Acetyl cysteamine] | – | – | 1.4 ± 0.3 | 1.03 ± 0.02 | – |
| CC(C)(CO)[C@@H](O)C(=O)O [compound 4, Pantoate] | – | – | 0.6 ± 0.1 | > 1000 | – |
| holo mACPb (1a) (domain or fragment) | 0.61 | 0.75 | – | – | 1 |
| apo mACPa, acyl carrier protein domain cognate to mKRa (module 5 of MLSA1), apo form (domain or fragment) | 2.2 | – | – | – | – |
| CC(C)(CO)[C@@H](O)C(=O)NCCC(=O)O [compound 3, Pantothenate] | – | – | 0.7 ± 0.1 | 0.7 ± 0.13 | – |
| holo mACPa (1a) (domain or fragment) | 0.63 | – | – | – | – |
| β-Hydroxybutyryl-mACPb (1c) (domain or fragment) | 0.27 | – | – | – | – |
| NCCS [compound 5, Cysteamine] | – | – | > 1000 | > 1000 | – |
| CC(C)(CO)[C@@H](O)C(=O)NCCC(=O)NCCS [compound 2, R-Pantetheine] | – | – | 1.2 ± 0.3 | 1.1 ± 0.04 | – |
| NCCC(=O)O [compound 6, β-Alanine] | – | – | 0.5 ± 0.09 | 0.97 ± 0.04 | – |
